From PubChem BioAssay AID330 (DTP/NCI, 2004) come the findings set out here.

The assay relates to P388 leukemia ip, CD2F1 mice, survival T/C. Description: NCI In Vivo Anticancer Drug Screen. Data for tumor model P388 Leukemia (intraperitoneal) in CD2F1 (CDF1) mice. To be noted: endpoint: median survival time, higher = longer survival. In outline: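 Mice carrying the transplanted tumor received test compound or vehicle. Survival was recorded in each group, and the value is the treated-group measurement divided by that of the vehicle-treated control group.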

The mark [1] stands for this setting: dose: 25.0 mg/kg/injection, schedule: Q01DX009 (ip), vehicle: saline.
[2] abbreviates: dose: 50.0 mg/kg/injection, schedule: Q01DX009 (ip), vehicle: saline.
[3] abbreviates: dose: 100.0 mg/kg/injection, schedule: Q01DX009 (ip), vehicle: saline.
[4] abbreviates: dose: 200.0 mg/kg/injection, schedule: Q01DX009 (ip), vehicle: saline.
[5] abbreviates: dose: 400.0 mg/kg/injection, schedule: Q01DX009 (ip), vehicle: saline.
Setting [6] is: dose: 50.0 mg/kg/injection, schedule: Q01DX005 (ip), vehicle: saline with Tween-80.
[7] abbreviates: dose: 100.0 mg/kg/injection, schedule: Q01DX005 (ip), vehicle: saline with Tween-80.
Setting [8] is: dose: 60.0 mg/kg/injection, schedule: Q01DX005 (ip), vehicle: Klucel (hydroxypropylcellulose) (HPC).

Several values for one entry are separate records, joined by “and”; a condition that tells them apart may be missing. Identical values can stand only once. Inconclusive results and toxic doses are left out. Square brackets hold non-standard residues; d marks the D form. Peptide text beside a SMILES is read from it. Ac5c = NC1(C(=O)O)CCCC1

In the case of `[O-][n+]1cccc(O)c1`, the T/C reads like this: under setting [1], 100 % of control and 102 % of control; under setting [2], 102 % of control and 108 % of control; under setting [3], 102 % of control and 92 % of control; under setting [4], 100 % of control and 108 % of control; under setting [5], 103 % of control and 97 % of control; (dose: 600.0 mg/kg/injection, schedule: Q01DX009 (ip), vehicle: saline) 108 % of control and 117 % of control.

Take `CCc1c(C)c(SC)n(C)c(=O)c1C#N`: the T/C is 99 % of control (dose: 25.0 mg/kg/injection, schedule: Q01DX009 (ip), vehicle: Klucel (hydroxypropylcellulose) (HPC)); 100 % of control (dose: 50.0 mg/kg/injection, schedule: Q01DX009 (ip), vehicle: Klucel (hydroxypropylcellulose) (HPC)); 97 % of control (dose: 100.0 mg/kg/injection, schedule: Q01DX009 (ip), vehicle: Klucel (hydroxypropylcellulose) (HPC)); 91 % of control (dose: 200.0 mg/kg/injection, schedule: Q01DX009 (ip), vehicle: Klucel (hydroxypropylcellulose) (HPC)).

Turning to `C[C@@H]1C[C@](O)([C@@H](C)Cl)C(=O)O[C@@H]2CCN3CC=C(COC(=O)[C@]1(C)O)[C@H]23`, the T/C reads like this: (dose: 2.75 mg/kg/injection, schedule: Q01DX009 (ip), vehicle: saline) 104 % of control; (dose: 3.75 mg/kg/injection, schedule: Q01DX009 (ip), vehicle: saline) 103 % of control; (dose: 5.5 mg/kg/injection, schedule: Q01DX009 (ip), vehicle: saline) 104 % of control; (dose: 7.5 mg/kg/injection, schedule: Q01DX009 (ip), vehicle: saline) 106 % of control; (dose: 11.0 mg/kg/injection, schedule: Q01DX009 (ip), vehicle: saline) 113 % of control; (dose: 15.0 mg/kg/injection, schedule: Q01DX009 (ip), vehicle: saline) 95 % of control. Further, the T/C is 104 % of control (dose: 22.0 mg/kg/injection, schedule: Q01DX009 (ip), vehicle: saline) and 106 % of control (dose: 30.0 mg/kg/injection, schedule: Q01DX009 (ip), vehicle: saline).

Take `Cc1ccc(C(=Nc2ccccc2Cl)N(O)c2ccccc2)cc1`: the T/C is 107 % of control (dose: 50.0 mg/kg/injection, schedule: Q01DX005 (ip), vehicle: Klucel (hydroxypropylcellulose) (HPC)); 102 % of control (dose: 100.0 mg/kg/injection, schedule: Q01DX005 (ip), vehicle: Klucel (hydroxypropylcellulose) (HPC)); 95 % of control (dose: 200.0 mg/kg/injection, schedule: Q01DX005 (ip), vehicle: Klucel (hydroxypropylcellulose) (HPC)).

Consider `COc1ccc(C(O)Cc2cc(OC)c(OC)c(OC)c2)cc1O` (configuration not stated), for which the T/C was 105 % of control (dose: 31.25 mg/kg/injection, schedule: Q01DX009 (ip), vehicle: saline + Tween-80 + alcohol); 98 % of control (dose: 62.5 mg/kg/injection, schedule: Q01DX009 (ip), vehicle: saline + Tween-80 + alcohol); 89 % of control (dose: 125.0 mg/kg/injection, schedule: Q01DX009 (ip), vehicle: saline + Tween-80 + alcohol); 91 % of control (dose: 250.0 mg/kg/injection, schedule: Q01DX009 (ip), vehicle: saline + Tween-80 + alcohol).

Take `NCC(=O)NC1(C(=O)O)CCCC1` (H-Gly-[Ac5c]-OH): the T/C is, setting by setting: under setting [1], 118 % of control; under setting [2], 118 % of control; under setting [3], 122 % of control; (dose: 100.0 mg/kg/injection, schedule: Q04DX003 (ip), vehicle: saline) 95 % of control; under setting [4], 105 % of control; (dose: 200.0 mg/kg/injection, schedule: Q04DX003 (ip), vehicle: saline) 100 % of control. Moreover, the T/C reads like this: under setting [5], 93 % of control; (dose: 400.0 mg/kg/injection, schedule: Q04DX003 (ip), vehicle: saline) 108 % of control.

With `Cc1c2ccncc2c(C)c2c1sc1ccccc12`, the T/C was 121 % of control (dose: 12.5 mg/kg/injection, schedule: Q04DX003 (ip), vehicle: alkali diluted with water); 162 % of control (dose: 200.0 mg/kg/injection, schedule: Q04DX003 (ip), vehicle: alkali diluted with water); 155 % of control (dose: 200.0 mg/kg/injection, schedule: Q04DX003 (ip), vehicle: distilled water + Tween-80); 117 % of control (dose: 400.0 mg/kg/injection, schedule: Q04DX003 (ip), vehicle: distilled water + Tween-80).

Take `O=C(O)/C(=C\c1c(Cl)[nH]c2ccccc12)NC(=O)c1ccccc1`: the T/C is 103 % of control (dose: 100.0 mg/kg/injection, schedule: Q01DX001 (ip), vehicle: saline with Tween-80); 99 % of control (dose: 200.0 mg/kg/injection, schedule: Q01DX001 (ip), vehicle: saline with Tween-80); 98 % of control (dose: 400.0 mg/kg/injection, schedule: Q01DX001 (ip), vehicle: saline with Tween-80).

For `CSC(=S)N/N=C(\C)Cc1ccccn1`, the T/C is 102 % of control (dose: 12.5 mg/kg/injection, schedule: Q01DX005 (ip), vehicle: saline with Tween-80); 100 % of control (dose: 25.0 mg/kg/injection, schedule: Q01DX005 (ip), vehicle: saline with Tween-80); 101 % of control and 95 % of control under setting [6].

As to `CC1(CSc2ccccc2)CC(=O)N1` (configuration not stated), the T/C (dose: 50.0 mg/kg/injection, schedule: Q01DX009 (ip), vehicle: suspension in saline) is 111 % of control; the T/C (dose: 100.0 mg/kg/injection, schedule: Q01DX009 (ip), vehicle: suspension in saline) is 98 % of control; the T/C (dose: 200.0 mg/kg/injection, schedule: Q01DX009 (ip), vehicle: suspension in saline) was 99 % of control.

As for `O=C1C(=O)c2ccccc2C(O)=C1Sc1ccc2ccccc2c1`, the T/C by setting is: (dose: 3.13 mg/kg/injection, schedule: Q01DX009 (ip), vehicle: saline with Tween-80) 100 % of control; (dose: 6.25 mg/kg/injection, schedule: Q01DX009 (ip), vehicle: saline with Tween-80) 99 % of control; (dose: 12.5 mg/kg/injection, schedule: Q01DX009 (ip), vehicle: saline with Tween-80) 95 % of control.

On to `O=C1c2ccccc2C(=O)N1c1ccc(Nc2nc(Nc3ccc(N4C(=O)c5ccccc5C4=O)cc3)nc(N(C3CCCCC3)C3CCCCC3)n2)cc1`, for which the T/C is, setting by setting: under setting [6], 94 % of control; under setting [7], 87 % of control.

On to `COc1cc[c]([Sn]([O][Sn]([Cl])([c]2ccc(OC)cc2)[c]2ccc(OC)cc2)[c]2ccc(OC)cc2)cc1`, for which the T/C was 97 % of control (dose: 3.12 mg/kg/injection, schedule: Q01DX005 (ip), vehicle: Klucel (hydroxypropylcellulose) (HPC)); 116 % of control and 92 % of control (dose: 6.25 mg/kg/injection, schedule: Q01DX005 (ip), vehicle: Klucel (hydroxypropylcellulose) (HPC)); 111 % of control (dose: 12.5 mg/kg/injection, schedule: Q01DX005 (ip), vehicle: Klucel (hydroxypropylcellulose) (HPC)); 120 % of control (dose: 25.0 mg/kg/injection, schedule: Q01DX005 (ip), vehicle: Klucel (hydroxypropylcellulose) (HPC)).

As to `CC(Nc1ncccn1)Nc1ncccn1`, the T/C is 107 % of control under setting [8]; 102 % of control (dose: 120.0 mg/kg/injection, schedule: Q01DX005 (ip), vehicle: Klucel (hydroxypropylcellulose) (HPC)); 111 % of control (dose: 240.0 mg/kg/injection, schedule: Q01DX005 (ip), vehicle: Klucel (hydroxypropylcellulose) (HPC)).

Turning to `O=C(O)CSC(SCC(=O)O)c1ccc(F)cc1`, the T/C by setting is: under setting [6], 96 % of control; under setting [7], 96 % of control; (dose: 200.0 mg/kg/injection, schedule: Q01DX005 (ip), vehicle: saline with Tween-80) 97 % of control.

`N#CC(C#N)=C(C#N)Nc1ccc(F)cc1`: the T/C was 91 % of control (dose: 30.0 mg/kg/injection, schedule: Q01DX005 (ip), vehicle: Klucel (hydroxypropylcellulose) (HPC)) and 90 % of control under setting [8].

On to `CCCC(=O)c1ccc(C)cc1`, for which the T/C was 104 % of control (dose: 100.0 mg/kg/injection, schedule: Q04DX003 (ip), vehicle: saline with Tween-80); 104 % of control (dose: 200.0 mg/kg/injection, schedule: Q04DX003 (ip), vehicle: saline with Tween-80); 86 % of control (dose: 400.0 mg/kg/injection, schedule: Q04DX003 (ip), vehicle: saline with Tween-80).

As to `O=C(Nc1ccc2c(O)c(N=Nc3ccc(N=Nc4ccc(S(=O)(=O)O)cc4)cc3)c(S(=O)(=O)O)cc2c1)c1ccccc1`, the T/C by setting is: under setting [2], 100 % of control; under setting [3], 95 % of control; under setting [4], 103 % of control.

For the molecule `Nc1nc2ccccc2c2c1C(=O)NC2=O`, the T/C was 104 % of control (dose: 50.0 mg/kg/injection, schedule: Q01DX009 (ip), vehicle: saline with Tween-80); 86 % of control (dose: 100.0 mg/kg/injection, schedule: Q01DX009 (ip), vehicle: saline with Tween-80); 90 % of control (dose: 200.0 mg/kg/injection, schedule: Q01DX009 (ip), vehicle: saline with Tween-80).
